We go through two compounds from paper PMC7071076, “Antibacterial Activity and Pharmacokinetic Profile of a Promising Antibacterial Agent: 22-(2-Amino-phenylsulfanyl)-22-Deoxypleuromutilin” (Molecules, 2020).

Values after ≈ are worked out from the molar mass of the structure shown. Structures can show the parent of a compound that is named as a salt. Where two headings read alike, the source gives them in different places. A value given as a limit tells only on which side of the number the result lay.

One assay deals with E. coli ATCC 25922. The assay is described as follows: MIC testing (broth dilution, 96-well plate). Type of assay: cell-based. The note with it: Escherichia coli, ATCC25922. The method, then:
(§1) The MIC of amphenmulin against MRSA, Escherichia coli, Salmonella typhimurium, Enterococcus faecalis, and Enterococcus faecium were determined using tiamulin as controls. MIC values were measured by the method of previous work. Staphylococcus aureus ATCC 29213 was used as the quality control bacteria, and the quality control range was referred to the Clinical and Laboratory Standards Institute (CLSI). The bacteria solution was diluted to ~10^6 CFU/mL with Mueller–Hinton (MH) broth for MRSA, Escherichia coli and Salmonella typhimurium while Trypticase Soy Broth for Enterococcus faecalis and Enterococcus faecium. Drugs were dissolved in an aqueous solution of N, N-dimethylformamide (DMF) at a concentration of 2560 µg/mL, and then diluted with broth to prepare working solution (1280 µg/mL). The drug susceptibility testing was performed in 96-well plate. A total of 20 µL of working solution was added into column 1 and well mixed as a 10-fold dilution, following which Serial 2-fold dilutions were prepared to provide concentration ranges of 128–0.0078 µg/mL. Blank broth (no cultures) and bacteria solution (drugs replaced by blank solvent) were set as drug-free controls. Each 96-well plate was cultured at 37 °C for 24 h. The MIC value is the lowest concentration of amphenmulin which inhibits the visible growth of bacteria. The experiment was repeated three times.
In general terms: Broth dilution looks for growth in wells or tubes with falling amounts of substance.

In the next assay the test system is E. faecalis ATCC 29212. The assay is described as follows: MIC testing (broth dilution, 96-well plate). As to conditions: Enterococcus faecalis, ATCC29212. Type of assay: cell-based. The method, then:
as §1

The test system of another assay is E. faecium ATCC 35667. The assay is described as follows: MIC testing (broth dilution, 96-well plate). Type of assay: cell-based. As to conditions: Enterococcus faecium, ATCC35667. The method, then: as §1
The subject of the next assay is S. aureus ATCC 29213. Nature of the assay: MIC testing (broth dilution, 96-well plate). Type of assay: cell-based. The note with it: Staphylococcus aureus, ATCC29213. The method, then: as §1
Assay [1] concerns S. typhimurium ATCC 14028. Nature of the assay: MIC testing (broth dilution, 96-well plate). Type of assay: cell-based. As to conditions: Salmonella enterica. The method, then: as §1
Another assay has as its system MRSA N20. The assay is described as follows: MIC testing, clinical strain. Type of assay: cell-based. The note with it: Staphylococcus aureus.
Excerpt: (§2) Methicillin-resistant Staphylococcus aureus (MRSA) ATCC 43300, Staphylococcus aureus ATCC 29213, Escherichia coli ATCC 25922, Salmonella typhimurium ATCC 14028, Enterococcus faecalis ATCC 29212, and Enterococcus faecium ATCC 35667 were obtained from the China Institute of Veterinary Drug Control (Beijing, China). Five clinical strains of MRSA (N7, N9, N20, N30, and N54) were isolated from diseased pig tissues of South China Agricultural University and Foshan University Animal Hospital. All clinical strains were identified as MRSA by Gram stain, catalase reaction, coagulase test, staphylococcus API identification system test, MecA gene test, and methicillin MIC test.
as §1

For a further assay, the system named is MRSA N30. Nature of the assay: MIC testing, clinical strain. Type of assay: cell-based. The note with it: Staphylococcus aureus.
Excerpt: as §2, §1

In the next assay the test system is MRSA N54. Nature of the assay: MIC testing, clinical strain. Type of assay: cell-based. As to conditions: Staphylococcus aureus.
Excerpt: as §2, §1

The subject of the next assay is MRSA N7. Nature of the assay: MIC testing, clinical strain. Type of assay: cell-based. The note with it: Staphylococcus aureus.
Excerpt: as §2, §1

The next assay has as its system MRSA N9. Nature of the assay: MIC testing, clinical strain. Type of assay: cell-based. As to conditions: Staphylococcus aureus.
Excerpt: as §2, §1

Assay [2] deals with MRSA ATCC 43300. On the set-up: method as in PMID 28295316. As to conditions: 4× MIC, cited from earlier work.
Assay [3] deals with MRSA ATCC 43300. Nature of the assay: MRSA wound infection model: wound size. Type of assay: in vivo, mice. As to conditions: after treatment for three days; 100 μL drug (3 mg/mL) on the wound. The method, then: (§3) Six weeks SPF-ICR female mice were used for this study. The Experimental model, inducted of inflammatory in mice by skin excision, was established referring to existing methods with some alterations. The mice were anesthetized with the intravenous injection of 1% sodium pentobarbital. After their hair on the back was shaved, the mice were anesthetized and the back skin was perforated with a biopsy perforator at a depth of fascia injury. The inoculum (50 μL), containing 10^9 CFU/mL of the indicated microorganism (MRSA ATCC 43300), was applied on the wound for three times at 30 min intervals. 100 μL drug (3 mg/mL) was administrated on the wound at 1 h after inoculation for three consecutive days. A total of 100 μL blank matrix was given to the infected control group and the non-infected group in the same way. The wound was wrapped with sterile gauze. During the treatment, all mice were kept individually and free to eat and drink.
The wounds were examined on day 1 and days 3 after treatment. The area of wound were measured according to previous reports with some modifications. In each group, six mice were taken out and anesthetized to take photos and measure the size of the wound as the results.

Assay [4] has as its system MRSA ATCC 43300. The assay is described as follows: MRSA wound infection model: wound bacterial burden. Type of assay: in vivo, mice. The method, then:
as §3
At the end of the examination, mice were anesthetized and killed. Tissue samples, reaching to the muscle membrane, were removed from the middle of the wound surface and homogenized in 0.9% saline. Serially diluted aliquots of homogenate were cultured on high-salt mannitol agar plate at 37 °C for 24 h. The log of the colony number was used for statistical analysis.

As usually defined, the MIC is the least concentration at which growth counts as inhibited. As to `C=C[C@]1(C)C[C@@H](OC(=O)CSCCN(CC)CC)[C@]2(C)[C@H](C)CC[C@]3(CCC(=O)[C@H]32)[C@@H](C)[C@@H]1O` [Tiamulin, reference compound], the MIC in the assay on E. coli ATCC 25922 was above 128 mg/L; in the assay on E. faecalis ATCC 29212, above 128 mg/L; against E. faecium ATCC 35667, 2 mg/L (≈ 4.05 µM); against S. aureus ATCC 29213, 0.5 mg/L (≈ 1.01 µM); in assay [1] it was above 128 mg/L; in the assay on MRSA N20, 32 mg/L (≈ 64.8 µM). The MIC with MRSA N30 was 32 mg/L (≈ 64.8 µM); in the assay on MRSA N54, 0.5 mg/L (≈ 1.01 µM); with MRSA N7, 16 mg/L (≈ 32.4 µM); with MRSA N9 it was 0.5 mg/L (≈ 1.01 µM). The PAE is recorded as 1.90 h in the assay with MRSA ATCC 43300 [2] (exposure for 1 h) and 2.04 h with MRSA ATCC 43300 [2] (exposure for 2 h).
Take `CN[C@H](CC(C)C)C(=O)N[C@H]1C(=O)N[C@@H](CC(N)=O)C(=O)N[C@H]2C(=O)N[C@H]3C(=O)N[C@H](C(=O)N[C@H](C(=O)O)c4cc(O)cc(O)c4-c4cc3ccc4O)[C@H](O)c3ccc(c(Cl)c3)Oc3cc2cc(c3O[C@@H]2O[C@H](CO)[C@@H](O)[C@H](O)[C@H]2O[C@H]2C[C@](C)(N)[C@H](O)[C@H](C)O2)Oc2ccc(cc2Cl)[C@H]1O` [vancomycin, vancomycin hydrochloride, reference compound]: the wound area in the assay with MRSA ATCC 43300 [3] is listed as 0.44 ± 0.07 cm^2. The “number of bacteria in wound tissue vs infected group” value in the assay on MRSA ATCC 43300 [4] (one day after treatment, p < 0.05) is listed as “significant decrease”. Further, the “number of bacteria in wound tissue” value with MRSA ATCC 43300 [4] (three days after treatment, 100 μL drug (3 mg/mL) on the wound) was 4.25 ± 0.57 log10 CFU/mL.
